System: mice
Test: Neuropharmacological Assay (SmartCube)
Assay type: in vivo
Conditions: for POTENCY (minimal effective dose, MED) / minimal effective dose: MED = dose having 50% or more total activity in SmartCube; for AD: ADHD (SmartCube probability) / AG: analgesic (SmartCube probability) / AX: anxiolytic (SmartCube probability) / CE: cognitive enhancer (SmartCube probability) / DP: anti-depressant (SmartCube probability) / MS: mood stabilizer (SmartCube probability) / PS: anti-psychotic (SmartCube probability) / SD: sedative hypnotic (SmartCube probability) / UN: uncharacterized CNS activity (SmartCube probability): mice, i.p. 15 min before test, most efficacious dose(s) of 3 doses; for minimal effective dose: Mus musculus, read-out: POTENCY (minimal effective dose, MED)
Outline: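 Behavior of treated mice captured by digital video and matched algorithmically against reference drug classes, yielding a class probability at the most efficacious of 3 i.p. doses (15 min pretreatment, NMP/PEG/propylene glycol vehicle). Potency given as MED, the mpk dose reaching ≥50% total activity across usually 0.3–30 mpk.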

SMILES	POTENCY (minimal effective dose, MED)	AD: ADHD (SmartCube probability)	AG: analgesic (SmartCube probability)	AX: anxiolytic (SmartCube probability)	CE: cognitive enhancer (SmartCube probability)	DP: anti-depressant (SmartCube probability)	MS: mood stabilizer (SmartCube probability)	PS: anti-psychotic (SmartCube probability)	SD: sedative hypnotic (SmartCube probability)	UN: uncharacterized CNS activity (SmartCube probability)	minimal effective dose
CNC[C@@H]1OCCc2ccc(Cl)cc21 [Example 65, (R)-1-(7-chloroisochroman-1-yl)-N-methylmethanamine]	A-B	+ (LOQ≤ + <5%)	++ (5%≤ ++ <25%)	++ (5%≤ ++ <25%)	+ (LOQ≤ + <5%)	++ (5%≤ ++ <25%)	+ (LOQ≤ + <5%)	++ (5%≤ ++ <25%)	++ (5%≤ ++ <25%)	++++ (50%≤ ++++)	–
NC[C@H]1OCCc2c(Cl)cccc21 [Example 66, (S)-(5-chloroisochroman-1-yl)methanamine]	A-B	+ (LOQ≤ + <5%)	+ (LOQ≤ + <5%)	++ (5%≤ ++ <25%)	+ (LOQ≤ + <5%)	++++ (50%≤ ++++)	+ (LOQ≤ + <5%)	+ (LOQ≤ + <5%)	+ (LOQ≤ + <5%)	+ (LOQ≤ + <5%)	–
NC[C@@H]1OCCc2c(Cl)cccc21 [Example 67, (R)-(5-chloroisochroman-1-yl)methanamine]	A-B	+ (LOQ≤ + <5%)	+ (LOQ≤ + <5%)	++ (5%≤ ++ <25%)	+ (LOQ≤ + <5%)	++++ (50%≤ ++++)	+ (LOQ≤ + <5%)	++ (5%≤ ++ <25%)	+ (LOQ≤ + <5%)	+ (LOQ≤ + <5%)	–
CNC[C@H]1OCc2cccc(F)c21 [Example 68, (S)-1-(7-fluoro-1,3-dihydroisobenzofuran-1-yl)-N-methylmethanamine]	–	+ (LOQ≤ + <5%)	++ (5%≤ ++ <25%)	++ (5%≤ ++ <25%)	++ (5%≤ ++ <25%)	++ (5%≤ ++ <25%)	+ (LOQ≤ + <5%)	++ (5%≤ ++ <25%)	+++ (25%≤ +++ <50%)	++ (5%≤ ++ <25%)	3 to 10 mg/kg
CNC[C@@H]1OCc2cccc(F)c21 [Example 69, (R)-1-(7-fluoro-1,3-dihydroisobenzofuran-1-yl)-N-methylmethanamine]	–	++ (5%≤ ++ <25%)	+++ (25%≤ +++ <50%)	++ (5%≤ ++ <25%)	+ (LOQ≤ + <5%)	++ (5%≤ ++ <25%)	++ (5%≤ ++ <25%)	++ (5%≤ ++ <25%)	+ (LOQ≤ + <5%)	++++ (50%≤ ++++)	< 3 mg/kg
NC[C@H]1OCCc2cccc(Cl)c21 [Example 70, (S)-(8-chloroisochroman-1-yl)methanamine]	–	+ (LOQ≤ + <5%)	++ (5%≤ ++ <25%)	++ (5%≤ ++ <25%)	++ (5%≤ ++ <25%)	++ (5%≤ ++ <25%)	+ (LOQ≤ + <5%)	+++ (25%≤ +++ <50%)	++ (5%≤ ++ <25%)	+++ (25%≤ +++ <50%)	3 to 10 mg/kg
NC[C@@H]1OCCc2cccc(Cl)c21 [Example 71, (R)-(8-chloroisochroman-1-yl)methanamine]	–	+ (LOQ≤ + <5%)	++ (5%≤ ++ <25%)	++ (5%≤ ++ <25%)	++ (5%≤ ++ <25%)	+ (LOQ≤ + <5%)	+ (LOQ≤ + <5%)	++ (5%≤ ++ <25%)	+ (LOQ≤ + <5%)	++++ (50%≤ ++++)	< 3 mg/kg
Cc1cccc2c1CCO[C@@H]2CN [Example 72, (S)-(5-methylisochroman-1-yl)methanamine]	–	+ (LOQ≤ + <5%)	+ (LOQ≤ + <5%)	++ (5%≤ ++ <25%)	+ (LOQ≤ + <5%)	++ (5%≤ ++ <25%)	+ (LOQ≤ + <5%)	+ (LOQ≤ + <5%)	+ (LOQ≤ + <5%)	+++ (25%≤ +++ <50%)	3 to 10 mg/kg
Cc1cccc2c1CCO[C@H]2CN [Example 73, (R)-(5-methylisochroman-1-yl)methanamine]	–	+ (LOQ≤ + <5%)	+ (LOQ≤ + <5%)	++ (5%≤ ++ <25%)	++ (5%≤ ++ <25%)	+++ (25%≤ +++ <50%)	+ (LOQ≤ + <5%)	+ (LOQ≤ + <5%)	++ (5%≤ ++ <25%)	++++ (50%≤ ++++)	< 3 mg/kg
Cc1cccc2c1[C@@H](CN)OCC2 [Example 74, (S)-(8-methylisochroman-1-yl)methanamine]	–	+ (LOQ≤ + <5%)	+ (LOQ≤ + <5%)	++ (5%≤ ++ <25%)	+ (LOQ≤ + <5%)	+ (LOQ≤ + <5%)	+ (LOQ≤ + <5%)	+ (LOQ≤ + <5%)	++ (5%≤ ++ <25%)	+++ (25%≤ +++ <50%)	10 to 30 mg/kg
Cc1cccc2c1[C@H](CN)OCC2 [Example 75, (R)-(8-methylisochroman-1-yl)methanamine]	–	+ (LOQ≤ + <5%)	++ (5%≤ ++ <25%)	++ (5%≤ ++ <25%)	++ (5%≤ ++ <25%)	++ (5%≤ ++ <25%)	+ (LOQ≤ + <5%)	++ (5%≤ ++ <25%)	+ (LOQ≤ + <5%)	++++ (50%≤ ++++)	3 to 10 mg/kg
CNC[C@H]1OCCc2c1cccc2C(F)(F)F [Example 78, (S)-N-methyl-1-(5-(trifluoromethyl)isochroman-1-yl)-methanamine]	–	+ (LOQ≤ + <5%)	++ (5%≤ ++ <25%)	++ (5%≤ ++ <25%)	+ (LOQ≤ + <5%)	++ (5%≤ ++ <25%)	+ (LOQ≤ + <5%)	+ (LOQ≤ + <5%)	+ (LOQ≤ + <5%)	++++ (50%≤ ++++)	10 to 30 mg/kg
CNC[C@@H]1OCCc2c1cccc2C(F)(F)F [Example 79]	–	++ (5%≤ ++ <25%)	+ (LOQ≤ + <5%)	+ (LOQ≤ + <5%)	+ (LOQ≤ + <5%)	++++ (50%≤ ++++)	+ (LOQ≤ + <5%)	+ (LOQ≤ + <5%)	++ (5%≤ ++ <25%)	+ (LOQ≤ + <5%)	< 3 mg/kg
CNC[C@H]1OCCc2cc(Cl)ccc21 [Example 80, (S)-1-(6-chloroisochroman-1-yl)-N-methylmethanamine]	–	+ (LOQ≤ + <5%)	+ (LOQ≤ + <5%)	++ (5%≤ ++ <25%)	++ (5%≤ ++ <25%)	++ (5%≤ ++ <25%)	+ (LOQ≤ + <5%)	+++ (25%≤ +++ <50%)	+ (LOQ≤ + <5%)	+ (LOQ≤ + <5%)	10 to 30 mg/kg
CNC[C@@H]1OCCc2cc(Cl)ccc21 [Example 81, (R)-1-(6-chloroisochroman-1-yl)-N-methylmethanamine]	–	++ (5%≤ ++ <25%)	+ (LOQ≤ + <5%)	++ (5%≤ ++ <25%)	+ (LOQ≤ + <5%)	++++ (50%≤ ++++)	+ (LOQ≤ + <5%)	+ (LOQ≤ + <5%)	+ (LOQ≤ + <5%)	++ (5%≤ ++ <25%)	< 3 mg/kg
